Measurements: US6689773B2, “Uracil substituted phenyl sulfamoyl carboxamides” (BASF Aktiengesellschaft, priority 2000, dated 2004)

Assays:
Format in all cases: in vivo
[1] = test system: DIGSA, Crabgrass, (Hairy) L, Digitaria sanguinalis, (L)Scop; assay: Preemergence herbicidal evaluation (Example 148); conditions: rating scale 0-9, two to four weeks after treatment
How it was run: (§1)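 Rate ~0.125–0.250 kg/ha, aqueous acetone spray onto soil post-sowing, pre-emergence. Greenhouse 2–4 wk. Visual injury score vs control; replicates averaged.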

[2] = test system: ECHCG, Barnyardgrass, Echinochloa crusgalli, (L.)Beau; assay: Preemergence herbicidal evaluation (Example 148); conditions: rating scale 0-9, two to four weeks after treatment
How it was run: as §1

[3] = test system: XANST, Cocklebur, Xanthium strumariam; assay: Preemergence herbicidal evaluation (Example 148); conditions: rating scale 0-9, two to four weeks after treatment
How it was run: as §1

[4] = test system: CHEAL, Lambsquarters, Chenopodium album, L. Common; assay: Preemergence herbicidal evaluation (Example 148); conditions: rating scale 0-9, two to four weeks after treatment
How it was run: as §1

[5] = test system: TRZAW, Winter wheat, Tritium Aestivum, L. (Winter); assay: Preemergence herbicidal evaluation (Example 148); conditions: rating scale 0-9, two to four weeks after treatment
How it was run: as §1

[6] = test system: SETVI, Green foxtail, Setaria viridis, (L.)Beau; assay: Preemergence herbicidal evaluation (Example 148); conditions: rating scale 0-9, two to four weeks after treatment
How it was run: as §1

[7] = test system: ZEAMX, Field corn, Zea mays L.; assay: Preemergence herbicidal evaluation (Example 148); conditions: rating scale 0-9, two to four weeks after treatment
How it was run: as §1

[8] = test system: ABUTH, Velvetleaf, Abutilon theophrasti, Medic.; assay: Preemergence herbicidal evaluation (Example 148); conditions: rating scale 0-9, two to four weeks after treatment
How it was run: as §1

[9] = test system: IPOHE, Morningglory, Ivyleaf, Ipomoea hederacea, (L)Jacq.; assay: Preemergence herbicidal evaluation (Example 148); conditions: rating scale 0-9, two to four weeks after treatment
How it was run: as §1

[10] = test system: ALOMY, Blackgrass, Alopecurus myosuroides; assay: Preemergence herbicidal evaluation (Example 148); conditions: rating scale 0-9, two to four weeks after treatment
How it was run: as §1

[11] = test system: GLXMA, Soybean, Glycine max, (L.) Merr.; assay: Preemergence herbicidal evaluation (Example 148); conditions: rating scale 0-9, two to four weeks after treatment
How it was run: as §1

[12] = test system: AMBEL, Ragweed, Common, Ambrosia artemiisifolia, L.; assay: Preemergence herbicidal evaluation (Example 148); conditions: rating scale 0-9, two to four weeks after treatment
How it was run: as §1

[13] = test system: DIGSA, Crabgrass, (Hairy) L, Digitaria sanguinalis, (L)Scop; assay: Postemergence herbicidal evaluation (Example 147); conditions: rating scale 0-9, two to three weeks after treatment
How it was run: (§2)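 Compound is applied postemergence at approximately 0.016–0.032 kg/ha through a nozzle at 40 psi, using 80/20 acetone/water with 1.0% SUN-IT II. Treated seedlings, grown about two weeks beforehand, stay in the greenhouse for two to three weeks before visual 0-9 scoring.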

[14] = test system: ECHCG, Barnyardgrass, Echinochloa crusgalli, (L.)Beau; assay: Postemergence herbicidal evaluation (Example 147); conditions: rating scale 0-9, two to three weeks after treatment
How it was run: as §2

[15] = test system: XANST, Cocklebur, Xanthium strumariam; assay: Postemergence herbicidal evaluation (Example 147); conditions: rating scale 0-9, two to three weeks after treatment
How it was run: as §2

[16] = test system: CHEAL, Lambsquarters, Chenopodium album, L. Common; assay: Postemergence herbicidal evaluation (Example 147); conditions: rating scale 0-9, two to three weeks after treatment
How it was run: as §2

[17] = test system: TRZAW, Winter wheat, Tritium Aestivum, L. (Winter); assay: Postemergence herbicidal evaluation (Example 147); conditions: rating scale 0-9, two to three weeks after treatment
How it was run: as §2

[18] = test system: SETVI, Green foxtail, Setaria viridis, (L.)Beau; assay: Postemergence herbicidal evaluation (Example 147); conditions: rating scale 0-9, two to three weeks after treatment
How it was run: as §2

[19] = test system: ZEAMX, Field corn, Zea mays L.; assay: Postemergence herbicidal evaluation (Example 147); conditions: rating scale 0-9, two to three weeks after treatment
How it was run: as §2

[20] = test system: ABUTH, Velvetleaf, Abutilon theophrasti, Medic.; assay: Postemergence herbicidal evaluation (Example 147); conditions: rating scale 0-9, two to three weeks after treatment
How it was run: as §2

[21] = test system: IPOHE, Morningglory, Ivyleaf, Ipomoea hederacea, (L)Jacq.; assay: Postemergence herbicidal evaluation (Example 147); conditions: rating scale 0-9, two to three weeks after treatment
How it was run: as §2

[22] = test system: ALOMY, Blackgrass, Alopecurus myosuroides; assay: Postemergence herbicidal evaluation (Example 147); conditions: rating scale 0-9, two to three weeks after treatment
How it was run: as §2

[23] = test system: GLXMA, Soybean, Glycine max, (L.) Merr.; assay: Postemergence herbicidal evaluation (Example 147); conditions: rating scale 0-9, two to three weeks after treatment
How it was run: as §2

[24] = test system: AMBEL, Ragweed, Common, Ambrosia artemiisifolia, L.; assay: Postemergence herbicidal evaluation (Example 147); conditions: rating scale 0-9, two to three weeks after treatment
How it was run: as §2

Structure (SMILES): Cn1c(C(F)(F)F)cc(=O)n(-c2cc(C(=O)NS(=O)(=O)NC3CCCC3)c(Cl)cc2F)c1=O [Example 78]
- Preemergence herbicidal rating DIGSA ([1]; rate 0.125 kg/ha): 4.0
- Preemergence herbicidal rating DIGSA ([1]; rate 0.25 kg/ha): 8.0
- Preemergence herbicidal rating ECHCG ([2]; rate 0.125 kg/ha): 4.0
- Preemergence herbicidal rating ECHCG ([2]; rate 0.25 kg/ha): 7.0
- Preemergence herbicidal rating XANST ([3]; rate 0.125 kg/ha): 9.0
- Preemergence herbicidal rating XANST ([3]; rate 0.25 kg/ha): 9.0
- Preemergence herbicidal rating CHEAL ([4]; rate 0.125 kg/ha): 9.0
- Preemergence herbicidal rating CHEAL ([4]; rate 0.25 kg/ha): 9.0
- Preemergence herbicidal rating TRZAW ([5]; rate 0.125 kg/ha): 1.0
- Preemergence herbicidal rating TRZAW ([5]; rate 0.25 kg/ha): 1.0
- Preemergence herbicidal rating SETVI ([6]; rate 0.125 kg/ha): 5.0
- Preemergence herbicidal rating SETVI ([6]; rate 0.25 kg/ha): 7.0
- Preemergence herbicidal rating ZEAMX ([7]; rate 0.125 kg/ha): 0.0
- Preemergence herbicidal rating ZEAMX ([7]; rate 0.25 kg/ha): 1.0
- Preemergence herbicidal rating ABUTH ([8]; rate 0.125 kg/ha): 9.0
- Preemergence herbicidal rating ABUTH ([8]; rate 0.25 kg/ha): 9.0
- Preemergence herbicidal rating IPOHE ([9]; rate 0.125 kg/ha): 9.0
- Preemergence herbicidal rating IPOHE ([9]; rate 0.25 kg/ha): 9.0
- Preemergence herbicidal rating ALMOY ([10]; rate 0.125 kg/ha): 1.0
- Preemergence herbicidal rating ALMOY ([10]; rate 0.25 kg/ha): 2.0
- Preemergence herbicidal rating GLXMA ([11]; rate 0.125 kg/ha): 3.0
- Preemergence herbicidal rating GLXMA ([11]; rate 0.25 kg/ha): 5.0
- Preemergence herbicidal rating AMBEL ([12]; rate 0.125 kg/ha): 9.0
- Preemergence herbicidal rating AMBEL ([12]; rate 0.25 kg/ha): 9.0
- Postemergence herbicidal rating DIGSA ([13]; rate 0.016 kg/ha): 5.0
- Postemergence herbicidal rating DIGSA ([13]; rate 0.032 kg/ha): 6.0
- Postemergence herbicidal rating ECHCG ([14]; rate 0.016 kg/ha): 8.0
- Postemergence herbicidal rating ECHCG ([14]; rate 0.032 kg/ha): 9.0
- Postemergence herbicidal rating XANST ([15]; rate 0.016 kg/ha): 9.0
- Postemergence herbicidal rating XANST ([15]; rate 0.032 kg/ha): 9.0
- Postemergence herbicidal rating CHEAL ([16]; rate 0.016 kg/ha): 7.0
- Postemergence herbicidal rating CHEAL ([16]; rate 0.032 kg/ha): 9.0
- Postemergence herbicidal rating TRZAW ([17]; rate 0.016 kg/ha): 5.5
- Postemergence herbicidal rating TRZAW ([17]; rate 0.032 kg/ha): 6.5
- Postemergence herbicidal rating SETVI ([18]; rate 0.016 kg/ha): 8.0
- Postemergence herbicidal rating SETVI ([18]; rate 0.032 kg/ha): 9.0
- Postemergence herbicidal rating ZEAMX ([19]; rate 0.016 kg/ha): 6.5
- Postemergence herbicidal rating ZEAMX ([19]; rate 0.032 kg/ha): 7.0
- Postemergence herbicidal rating ABUTH ([20]; rate 0.016 kg/ha): 9.0
- Postemergence herbicidal rating ABUTH ([20]; rate 0.032 kg/ha): 9.0
- Postemergence herbicidal rating IPOHE ([21]; rate 0.016 kg/ha): 9.0
- Postemergence herbicidal rating IPOHE ([21]; rate 0.032 kg/ha): 9.0
- Postemergence herbicidal rating ALMOY ([22]; rate 0.016 kg/ha): 2.0
- Postemergence herbicidal rating ALMOY ([22]; rate 0.032 kg/ha): 2.0
- Postemergence herbicidal rating GLXMA ([23]; rate 0.016 kg/ha): 7.0
- Postemergence herbicidal rating GLXMA ([23]; rate 0.032 kg/ha): 8.0
- Postemergence herbicidal rating AMBEL ([24]; rate 0.016 kg/ha): 9.0
- Postemergence herbicidal rating AMBEL ([24]; rate 0.032 kg/ha): 9.0

Structure (SMILES): CCN(CC)S(=O)(=O)NC(=O)c1cc(-n2c(=O)cc(C(F)(F)F)n(C)c2=O)c(F)cc1Cl [Example 68]
- Preemergence herbicidal rating DIGSA ([1]; rate 0.125 kg/ha): 3.0
- Preemergence herbicidal rating DIGSA ([1]; rate 0.25 kg/ha): 4.0
- Preemergence herbicidal rating ECHCG ([2]; rate 0.125 kg/ha): 3.0
- Preemergence herbicidal rating ECHCG ([2]; rate 0.25 kg/ha): 4.0
- Preemergence herbicidal rating XANST ([3]; rate 0.125 kg/ha): 9.0
- Preemergence herbicidal rating XANST ([3]; rate 0.25 kg/ha): 9.0
- Preemergence herbicidal rating CHEAL ([4]; rate 0.125 kg/ha): 8.0
- Preemergence herbicidal rating CHEAL ([4]; rate 0.25 kg/ha): 8.0
- Preemergence herbicidal rating TRZAW ([5]; rate 0.125 kg/ha): 0.0
- Preemergence herbicidal rating TRZAW ([5]; rate 0.25 kg/ha): 0.0
- Preemergence herbicidal rating SETVI ([6]; rate 0.125 kg/ha): 4.0
- Preemergence herbicidal rating SETVI ([6]; rate 0.25 kg/ha): 8.0
- Preemergence herbicidal rating ZEAMX ([7]; rate 0.125 kg/ha): 1.0
- Preemergence herbicidal rating ZEAMX ([7]; rate 0.25 kg/ha): 2.0
- Preemergence herbicidal rating ABUTH ([8]; rate 0.125 kg/ha): 9.0
- Preemergence herbicidal rating ABUTH ([8]; rate 0.25 kg/ha): 9.0
- Preemergence herbicidal rating IPOHE ([9]; rate 0.125 kg/ha): 9.0
- Preemergence herbicidal rating IPOHE ([9]; rate 0.25 kg/ha): 9.0
- Preemergence herbicidal rating ALMOY ([10]; rate 0.125 kg/ha): 0.0
- Preemergence herbicidal rating ALMOY ([10]; rate 0.25 kg/ha): 0.0
- Preemergence herbicidal rating GLXMA ([11]; rate 0.125 kg/ha): 7.0
- Preemergence herbicidal rating GLXMA ([11]; rate 0.25 kg/ha): 8.0
- Preemergence herbicidal rating AMBEL ([12]; rate 0.125 kg/ha): 9.0
- Preemergence herbicidal rating AMBEL ([12]; rate 0.25 kg/ha): 9.0
- Postemergence herbicidal rating DIGSA ([13]; rate 0.016 kg/ha): 6.0
- Postemergence herbicidal rating DIGSA ([13]; rate 0.032 kg/ha): 6.0
- Postemergence herbicidal rating ECHCG ([14]; rate 0.016 kg/ha): 8.0
- Postemergence herbicidal rating ECHCG ([14]; rate 0.032 kg/ha): 8.0
- Postemergence herbicidal rating XANST ([15]; rate 0.016 kg/ha): 9.0
- Postemergence herbicidal rating XANST ([15]; rate 0.032 kg/ha): 9.0
- Postemergence herbicidal rating CHEAL ([16]; rate 0.016 kg/ha): 8.0
- Postemergence herbicidal rating CHEAL ([16]; rate 0.032 kg/ha): 8.0
- Postemergence herbicidal rating TRZAW ([17]; rate 0.016 kg/ha): 5.0
- Postemergence herbicidal rating TRZAW ([17]; rate 0.032 kg/ha): 5.5
- Postemergence herbicidal rating SETVI ([18]; rate 0.016 kg/ha): 7.0
- Postemergence herbicidal rating SETVI ([18]; rate 0.032 kg/ha): 9.0
- Postemergence herbicidal rating ZEAMX ([19]; rate 0.016 kg/ha): 7.0
- Postemergence herbicidal rating ZEAMX ([19]; rate 0.032 kg/ha): 7.5
- Postemergence herbicidal rating ABUTH ([20]; rate 0.016 kg/ha): 9.0
- Postemergence herbicidal rating ABUTH ([20]; rate 0.032 kg/ha): 9.0
- Postemergence herbicidal rating IPOHE ([21]; rate 0.016 kg/ha): 9.0
- Postemergence herbicidal rating IPOHE ([21]; rate 0.032 kg/ha): 9.0
- Postemergence herbicidal rating ALMOY ([22]; rate 0.016 kg/ha): 1.0
- Postemergence herbicidal rating ALMOY ([22]; rate 0.032 kg/ha): 1.0
- Postemergence herbicidal rating GLXMA ([23]; rate 0.016 kg/ha): 8.5
- Postemergence herbicidal rating GLXMA ([23]; rate 0.032 kg/ha): 8.5
- Postemergence herbicidal rating AMBEL ([24]; rate 0.016 kg/ha): 9.0
- Postemergence herbicidal rating AMBEL ([24]; rate 0.032 kg/ha): 9.0
